# Target: Phosphodiesterase 3 (Homo sapiens, UniProt Q14432+Q13370)
# Assay: Scintillation Proximity Assay (SPA): The kinase assay is based on the LanthaScreen technology.
# Type: protein assay
smiles,measurement,value
Cn1cc(-c2cc(F)c3nnc(Sc4ccc5ncc(NCCO)cc5c4)n3c2)cn1,IC50,13 µM
